According to paper PMC6274077, “In Vitro Study on Anti-Hepatitis C Virus Activity of Spatholobus suberectus Dunn” (Molecules, 2016):
Read-outs that look alike come from different tables or passages of the source.

Legend:
[1] = tested on: HCV genotype 1b (Con1) replicon; assay: Anti-HCV luciferase reporter assay on Huh-luc/neo-ET replicon cells; details: Hepatitis C virus, GETYPE1B, 72 h
[2] = Cytotoxicity by methylene blue assay; format: cell-based; details: human, Huh-luc/neo-ET cells
Method: The cytotoxicity of different herbal extract or components was measured by methylene blue assay. Huh-luc/neo-ET cells were seeded at a density of 7 × 10^3 cells per well in 96-well plate and treated with serial dilution of different herb extracts for 72 h. Cells were fixed and stained with 0.5% methylene blue in 50% ethanol, and then washed with tap water. After air-dry, cells were solubilized with 1% Sarkosyl and cell viability was determined from the extent absorption by spectrophotometric measurements at 595 nm (Spectra Max M5, Molecular Devices).

[3] = tested on: HCV entry; set-up: method as in PMID 22491814; details: cited from earlier work
[4] = tested on: HCV JFH1-GFP chimeric virus; set-up: method as in PMID 22491814; details: read-out: EC50, replication of HCV JFH1-GFP chimeric virus; cited from earlier work
[5] = tested on: J399EM virus; set-up: method as in PMID 22491814; details: cited from earlier work
[6] = tested on: different subtypes of human and avian influenza viruses; details: cited from earlier work
[7] = read-out: Anti-HCV Activity (EC50)
[8] = read-out: Anti-HCV Activity (EC50), in brackets as mass concentration
[9] = read-out: Anti-HCV Activity (EC50, 72 h)

`CC(C)OC(=O)[C@H](C)N[P@](=O)(OC[C@H]1O[C@@H](n2ccc(=O)[nH]c2=O)[C@](C)(F)[C@@H]1O)Oc1ccccc1` [Sofosbuvir, sofosbuvir] showed an EC50 [1, 7] of 0.0263 ± 0.0055 µM and an EC50 [1, 8] of 13.9 ng/mL.
`COc1ccc2c(O[C@@H]3C[C@H]4C(=O)N[C@]5(C(=O)NS(=O)(=O)C6CC6)C[C@H]5/C=C\CCCCN(C)C(=O)[C@@H]4C3)cc(-c3nc(C(C)C)cs3)nc2c1C` [Simeprevir, simeprevir] gave an EC50 [1, 7] of 0.00127 ± 0.00025 µM and an EC50 [1, 8] of 42.5 ng/mL.
With `O=C(O)c1cc(O)c(O)c(O)c1` [Gallic acid, gallic acid] the IC50 at 72 h [2] was > 100 µM and the EC50 [1, 9] was > 100 µM.
In the case of `O=C(O[C@@H]1Cc2c(O)cc(O)cc2O[C@@H]1c1cc(O)c(O)c(O)c1)c1cc(O)c(O)c(O)c1` [EGCG, epigallocatechin gallate], the EC50 [3] is listed as 25 µM, the EC50 [4] is listed as 17.9 µM and the IC50 at 72 h [2] is listed as > 100 µM. For the same compound, the EC50 [1, 9] was 68.7 ± 4.51 µM and the EC50 [5] was 80 µM.
In the case of `Oc1cc(O)c2c(c1)O[C@H](c1ccc(O)c(O)c1)[C@@H](O)C2` [(+)-Catechin], the IC50 at 72 h [2] is reported as > 100 µM and the EC50 [1, 9] is reported as > 100 µM.
In the case of `O=C(O[C@@H]1Cc2c(O)cc(O)cc2O[C@@H]1c1ccc(O)c(O)c1)c1cc(O)c(O)c(O)c1` [ECG, epicatechin gallate], the IC50 at 72 h [2] is reported as > 100 µM and the EC50 [1, 9] is reported as 69.8 ± 5.62 µM.
For `Oc1cc(O)c2c(c1)O[C@H](c1cc(O)c(O)c(O)c1)[C@H](O)C2` [EGC, epigallocatechin], the IC50 at 72 h [2] was > 100 µM and the EC50 [1, 9] was > 100 µM.
In the case of `COc1cc(C[C@H]2CO[C@H](c3ccc(O[C@@H]4O[C@H](CO)[C@@H](O)[C@H](O)[C@H]4O)c(OC)c3)[C@H]2CO)ccc1O[C@@H]1O[C@H](CO)[C@@H](O)[C@H](O)[C@H]1O` [Clemastanin B], the “inhibitory concentrations against influenza viruses” value [6] is given as “below 1 mg/mL”.
In the case of `COC(=O)N[C@H](C(=O)N1CCC[C@H]1c1nc(-c2ccc(-c3ccc(-c4c[nH]c([C@@H]5CCCN5C(=O)[C@@H](NC(=O)OC)C(C)C)n4)cc3)cc2)c[nH]1)C(C)C` [Daclatasvir, daclatasvir], the EC50 [1, 7] is reported as 8e-06 ± 1e-06 µM and the EC50 [1, 8] is reported as 0.00591 ng/mL.
In the case of `Oc1cc(O)c2c(c1)O[C@H](c1ccc(O)c(O)c1)[C@H](O)C2` [EC, epicatechin], the IC50 at 72 h [2] is reported as > 100 µM and the EC50 [1, 9] is reported as > 100 µM.
For `CCC[C@H](NC(=O)[C@@H]1[C@H]2CCC[C@H]2CN1C(=O)[C@@H](NC(=O)[C@@H](NC(=O)c1cnccn1)C1CCCCC1)C(C)(C)C)C(=O)C(=O)NC1CC1` [Telaprevir, telaprevir], the EC50 [1, 7] was 0.185 ± 0.035 µM and the EC50 [1, 8] was 126 ng/mL.
